Results taken from patent US8178133B2, “Magnesium compositions and uses thereof” (Magceutics, Inc., priority 2007, dated 2012).

Legend:
[1] = test system: aging rats; assay: Novel object recognition test in rats; assay type: in vivo, Sprague-Dawley rats
[2] = test system: young and aging/aged rats; assay: Elevated T-maze test, spatial working memory; assay type: in vivo, Sprague Dawley (SD) rats; conditions: MgCl2 diet
Experimental: Twenty 2-month old, male Sprague Dawley (SD) rats were housed in a temperature-controlled room (22° C. to 25° C.) with a dark period from 08:00 pm to 08:00 am daily. […] Over 7 days before the training and trial period began, each rat was handled and habituated to the maze and to Kellogg's Froot Loop cereal.
Each rat underwent a test of one trial, followed by an interval of 10-minutes, followed by another trial, and so on, for a total of 6 trials in one day. In each trial, each rat went through a sample run in the maze, followed by an interval of 15 seconds, followed by a choice run in the maze. In the sample run, the subject rat was forced to go to the left or to the right by the presence of a block, according to a pseudorandom sequence (with an equal number of left turns and right turns, and no more than two consecutive turns in the same direction). As a reward, Froot Loop cereal was available in the food well at the end of the run, regardless of the direction that was taken by virtue of the block. In the choice run, the block that had been present in the preceding sample run was removed, and the rat was allowed to choose to go to the left or to the right. […]
Three groups of animals (young, aging, and magnesium-treated aging rats) were used. […] Spatial working memory was assessed using a T-maze non-matching-to-place task. […] Spatial working memory was first assessed on an elevated T-maze. […]

[3] = test system: mice genetically altered to present symptoms of Alzheimer's disease (AD); assay: Modified Morris water maze test in AD mice; assay type: in vivo; conditions: AD mice aged 13 months
Experimental: Another group, the control group, of 10 mice that were genetically altered to present symptoms of AD were fed a Control Diet, a diet of normal solid food and water, for 30 days.
The pool used was a pool of water in a circular metal tank (150 cm in diameter and 50 cm in depth) having a water height of 30 cm and a water temperature that was maintained at ˜22° C. The pool was placed in a moderately lit area and surrounded by a black curtain. An acrylic platform (15 cm in diameter) was placed 2 cm below the surface of the water in the middle of one quadrant of the pool, equidistant from the center and the edge of the pool. Outside the pool, a cue was placed so as to be visible to a mouse in the maze, allowing a mouse to use it as a landmark for spatial orientation. The cue remained unchanged throughout the test period.
On the first day of the training and testing period, the water in the pool was transparent, such that the platform was visible. Each mouse was trained to swim towards the platform and to stand on the platform so as not to be submerged in the pool. […] The amount of time the mouse took to find the platform, referred to as “escape latency,” was recorded for each trial.
On the second day of the training and testing period, a small quantity of milk was added to the water in the pool, such that the pool was opaque and the platform was no longer visible. […]

[4] = test system: young (9-month old) and aged (25-month old) rats; conditions: food containing 2% magnesium oxide for 8 days; cited from earlier work

[Cl-].[Cl-].[Mg+2] [MgCl2]
novel object exploration preference ([1]; aging rats 12-14 months, 6 mg/kg MgCl2 from 8 months of age, single training, 10 minute retention interval): preferentially explored the novel object to the same extent as young rats
novel object exploration preference ([1]; aging rats, single training, 24 hours retention interval): lose there ability to distinguish novel versus familiar objects
novel object exploration preference ([1]; aging rats, two training sessions (spaced training), 24-hour retention interval): retained a high level of preference
spatial working memory, choice accuracy with increased delay ([2]; 2 and 5 min delays): significantly enhanced the performance of the aging rats
percentage of correct choices, learning of non-matching-to-place task ([2]; 15 sec delay): performed significantly better from their first trials

COc1cc2c(cc1OC)C(=O)C(CC1CCN(Cc3ccccc3)CC1)C2 (centres unmarked) [aricept]
effect on learning capacity, comparison with anti-AD drugs [3]: both being better at reducing the effects of AD on learning capacity than aricept

[O]=[Mg] [magnesium oxide]
cognitive function [4]: some sign of improvement of cognitive function

CC12CC3CC(C)(C1)CC(N)(C3)C2 [memantine]
effect on learning capacity, comparison with anti-AD drugs [3]: better at reducing the effects of AD on learning capacity than aricept
